Test results: PubChem BioAssay AID652053 (Broad Institute, 2013)

System: Huh7 psiCHECK-miR122 Renilla luciferase reporter, 48 h
Assay: miR-122 inhibitors in Huh7 reporter cells, dose response, cell-based, Huh7 psiCHECK-miR122, Renilla luciferase, cherry-pick (AID 652053)

SMILES	AC40 [µM]
COc1ccc(NS(=O)(=O)c2cc(C)ccc2OC)cc1OC	3.76
Cc1ccc(C)c(S(=O)(=O)NC2CCS(=O)(=O)C2)c1 (centres undefined)	8.66
COc1ccc(NS(=O)(=O)c2c(C)cc(C)cc2C)cc1	4.53
COc1ccc(NS(=O)(=O)c2cc(NC(=O)c3ccc(Cl)cc3)ccc2N2CCOCC2)cc1	< 0.26
COc1ccccc1N/C(=N/S(=O)(=O)c1ccc(C)cc1)c1ccccc1	9.99
CCOC(=O)Nc1ccc(NS(=O)(=O)c2ccc(C)cc2)cc1	8.82
C[C@@H]1CN([C@@H](C)CO)C(=O)c2cccc(NC(=O)Nc3ccccc3)c2O[C@H]1CN(C)Cc1ccc(C(F)(F)F)cc1	2.49
c1ccc(CNc2nnnn2-c2ccccc2)cc1	17.1
COc1ccc(NS(=O)(=O)c2cc(NC(=O)c3sccc3C)ccc2N2CCOCC2)cc1	< 0.26
Cc1ccc(S(=O)(=O)N(C)C[C@H]2Oc3ccc(NC(=O)Nc4ccc(C(F)(F)F)cc4)cc3C(=O)N([C@H](C)CO)C[C@H]2C)cc1	5.41
COc1ccc(S(=O)(=O)Nc2ccc(-c3ccc4nnc(C)n4n3)cc2)c(OC)c1	4.03
COc1cc(S(=O)(=O)NC2CCCCC2)ccc1Cl	2.18
C[C@@H]1CN([C@H](C)CO)C(=O)c2cccc(N(C)C)c2O[C@H]1CN(C)C(=O)Nc1ccccc1	1.33
Cc1ccc(-c2cnc3c(c2)C(=O)N([C@H](C)CO)C[C@@H](C)[C@H](CN(C)Cc2ccccc2F)O3)cc1	2.64
CS(=O)(=O)N(CC(=O)Nc1ccc(Cl)c(Cl)c1)C1CCCCC1	13.5
Cc1cc(C)cc(C(O)c2ncc(-c3ccccc3F)[nH]2)c1 (centres undefined)	2.5
COc1ccc(S(=O)(=O)Nc2ccc(S(=O)(=O)Nc3ccc(F)cc3)cc2)cc1C	14.5
C[C@@H]1CN([C@@H](C)CO)S(=O)(=O)c2ccc(C#CCN(C)C)cc2O[C@@H]1CN(C)Cc1ccc2c(c1)OCO2	8.29
Cc1cccc(NS(=O)(=O)c2cc3c4c(c2)C(C)C(=O)N4CCC3)c1 (centres undefined)	1.93
O=S(=O)(NCC1CCCO1)c1cccc(C(F)(F)F)c1 (centres undefined)	22.2
CC(NC(=O)CNC(=S)N(Cc1cccs1)C1CCCC1)c1ccccc1 (centres undefined)	1.47
CCN(CC(=O)NCc1cccs1)C(=O)c1cccc(S(=O)(=O)Nc2cccc(C)c2)c1	6.04
CC(C)Oc1ccc(C(=O)Nc2ccc(Cl)c(S(=O)(=O)Nc3ccc(Cl)cc3)c2)cc1	0.559

SMILES	AC40 [µM]
CCc1ccc(-c2cc(C)no2)cc1S(=O)(=O)NCc1ccccc1OC	3.11
COc1ccc(N(C(=O)c2ccncc2)S(=O)(=O)c2ccc3c4c(cccc24)C(=O)N3C)cc1	7.01
C[C@@H]1CN([C@@H](C)CO)C(=O)c2cccc(NC(=O)C3CCCCC3)c2O[C@@H]1CN(C)Cc1ccc(C(=O)Nc2ccccc2N)cc1	6.92
CNC(=O)NC(=O)C(C)OC(=O)c1ccc(Cl)c(S(=O)(=O)Nc2ccc(F)cc2)c1 (centres undefined)	7.64
O=C1COc2ccc(S(=O)(=O)Nc3ccc(F)cc3)cc2N1	5.23
Cc1nn(C)c(C)c1S(=O)(=O)NCc1cccs1	13.9
Cc1csc2c(=O)sc(NC(=O)c3ccco3)nc12	14.5
CC(C)C#Cc1ccc2c(c1)O[C@H](CN(C)C(=O)Nc1ccccc1)[C@@H](C)CN([C@@H](C)CO)S2(=O)=O	2.08
COc1ccc(S(=O)(=O)NCCN2CCOCC2)c2ccccc12	0.789
Cc1ccc(S(=O)(=O)Nc2cccc(-c3ccc4nncn4n3)c2)cc1	9.35
COc1ccc(NS(=O)(=O)c2cccc(Cl)c2)cc1S(=O)(=O)N1CCCCC1	4.35
COc1ccc(NS(=O)(=O)c2cc(C)ccc2C)cc1	1.47
COc1ccc(S(=O)(=O)NCCSC(C)(C)C)c(Cl)c1Cl	8.16
C[C@H](CO)N1C[C@H](C)[C@@H](CN(C)Cc2ccc(C(=O)Nc3ccccc3N)cc2)Oc2ccc(N(C)C)cc2CC1=O	11.3
CCN(CC)C(=S)Nc1ccc(Cl)c(Cl)c1	16
C[C@@H]1CN([C@@H](C)CO)C(=O)Cc2cc(NC(=O)Nc3ccc4c(c3)OCO4)ccc2O[C@@H]1CN(C)C(=O)Nc1cccc2ccccc12	10.9
COc1ccc2oc(C(=O)N3CCc4ccccc43)c(C)c2c1	5.37
CN1C(=O)c2cc(NC(=O)NCc3ccccc3)ccc2OC[C@@H]2O[C@H](CC(=O)NCC3CCCCC3)CC[C@@H]21	0.358
COc1ccc(NS(=O)(=O)c2cc(Br)cc3c2N(C(C)=O)CC3)cc1	2.67
CCN(CC)c1ccc(NC(=O)c2cnccn2)cc1S(=O)(=O)Nc1ccc(OC)cc1	0.976
COCC#Cc1ccc2c(c1)O[C@H](CN(C)Cc1ccc3c(c1)OCO3)[C@@H](C)CN([C@@H](C)CO)S2(=O)=O	13.8
COc1cc2oc3ccccc3c2cc1N(CC(=O)N(C)C)S(=O)(=O)c1ccccc1	4.54
C[C@@H]1CN([C@H](C)CO)C(=O)c2cccc(NS(C)(=O)=O)c2O[C@@H]1CN(C)Cc1ccc(C(F)(F)F)cc1	12.5

SMILES	AC40 [µM]
CSc1ccc(S(=O)(=O)Nc2ccc(F)cc2)cc1	5.15
COc1ccc(NC(=O)c2cc(C)nc3ccccc23)cc1S(=O)(=O)Nc1ccccc1Cl	2.33
COCC#Cc1ccc2c(c1)O[C@H](CN(C)S(=O)(=O)c1ccc(OC)cc1)[C@H](C)CN([C@H](C)CO)S2(=O)=O	5.8
COc1cc(CN(C)C(=O)C(=O)c2c[nH]c3ccccc23)ccc1O	6.67
CC1CCCCC1NC(=S)Nc1ccc(SC(F)F)cc1 (centres undefined)	4.15
COc1ccc(NS(=O)(=O)c2cc(NC(=O)CCc3ccc(OC)c(OC)c3)ccc2N2CCOCC2)cc1	1.77
CCCCNS(=O)(=O)c1ccc(OC)c(Cl)c1Cl	3.99
Clc1cccc(Cl)c1CSc1nnc(CN2CCOCC2)n1-c1ccccc1	10.4
COc1ccc(-c2nc3ccccn3c2NC2CCCCC2)cc1SC1CCCCC1	7.13
CCc1ccc(-c2cc(C)no2)cc1S(=O)(=O)NCCc1ccc(S(N)(=O)=O)cc1	4.08
C[C@@H]1CN([C@@H](C)CO)C(=O)c2cccc(NC(=O)C3CC3)c2O[C@@H]1CN(C)Cc1ccc(C(=O)Nc2ccccc2N)cc1	3.72
O=C(Nc1ccc(S(=O)(=O)NCCc2ccccc2)cc1)c1ccco1	2.02
C[C@@H]1CN([C@@H](C)CO)C(=O)c2cc(NC(=O)Nc3ccccc3)ccc2O[C@@H]1CN(C)Cc1ccc(C(=O)Nc2ccccc2N)cc1	13.4
COc1ccccc1C(=O)Nc1ccc2c(c1)C(=O)N(C)[C@H]1CC[C@@H](CC(=O)NCc3ccc(Cl)c(Cl)c3)O[C@@H]1CO2	2.85
COc1ccc(C(=O)NC(=S)Nc2ccc(S(=O)(=O)Nc3cc(OC)ncn3)cc2)cc1	4.82
COc1ccccc1CNC(=O)C[C@@H]1CC[C@H]2[C@H](COc3ccc(NC(C)=O)cc3C(=O)N2C)O1	22
CCN(CC)S(=O)(=O)c1cc(NS(=O)(=O)c2cc(Cl)ccc2Cl)ccc1C	4.19
O=C(CN1c2ccccc2Sc2ccccc21)NNC(=O)Nc1cccc(Cl)c1	17.1
CCCCNS(=O)(=O)c1ccc2nc(SCC(N)=O)[nH]c2c1	6.07
CCN(CC)C(=O)CC(c1ccc(N(C)C)cc1)c1c(OC)cc(OC)c2c(-c3ccccc3)cc(=O)oc12 (centres undefined)	3
CC(=O)c1c(C)[nH]c(C(=O)Nc2ccc(C)c(S(=O)(=O)Nc3ccc(C)cc3C)c2)c1C	8.45
COc1ccc(S(=O)(=O)Nc2ccc(CC#N)cc2)cc1	11.9
O=C(C1CCCCC1)N1[C@H](CO)[C@@H]2c3ccccc3N(S(=O)(=O)c3ccccc3)C[C@@H]21	3.09
